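48-hour exposure; five concentrations; linearly interpolated endpoints. GI50: concentration for 50% inhibition of growth.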 Activity calls are given as the source filed them. Rule as the data show it: active = GI50 up to about 1.1 µM and inactive = higher.
How the values were obtained:
Assay in all cases: NCI anticancer screen, dose series, 48 h
UO-31 = system: UO-31
SK-MEL-5 = system: SK-MEL-5
OVCAR-3 = system: OVCAR-3
SNB-19 = system: SNB-19
NCI/ADR-RES = system: NCI/ADR-RES
IGROV-1 = system: IGROV-1
COLO 205 = system: COLO 205
BT-549 = system: BT-549
NCI-H226 = system: NCI-H226
CAKI-1 = system: CAKI-1
KM12 = system: KM12
HOP-92 = system: HOP-92
UACC-257 = system: UACC-257
Hs-578T = system: Hs-578T
EKVX = system: EKVX
OVCAR-4 = system: OVCAR-4
U-251 = system: U-251
SF-539 = system: SF-539
Malme-3M = system: Malme-3M
LOX IMVI = system: LOX IMVI

## Cc1cc2c(cc1Cl)Sc1nnc(C)n1S2(=O)=O
UO-31
  GI50: 10.6 µM (inactive)
SK-MEL-5
  GI50: 13.6 µM (inactive)
OVCAR-3
  GI50: 12.6 µM (inactive)
SNB-19
  GI50: 23.5 µM (inactive)
NCI/ADR-RES
  GI50: 27 µM (inactive)
IGROV-1
  GI50: 12.3 µM (inactive)
COLO 205
  GI50: 15.2 µM (inactive)
BT-549
  GI50: 14.1 µM (inactive)
NCI-H226
  GI50: 30.2 µM (inactive)
CAKI-1
  GI50: 15.6 µM (inactive)
KM12
  GI50: 15.5 µM (inactive)
HOP-92
  GI50: 2.84 µM (inactive)
UACC-257
  GI50: 13.9 µM (inactive)
Hs-578T
  GI50: 28.9 µM (inactive)
EKVX
  GI50: 16 µM (inactive)
OVCAR-4
  GI50: 12.5 µM (inactive)
U-251
  GI50: 15.1 µM (inactive)
SF-539
  GI50: 17.9 µM (inactive)
Malme-3M
  GI50: 8.67 µM (inactive)
LOX IMVI
  GI50: 10.1 µM (inactive)

## O=[N+]([O-])c1ccc2c(Nc3ccccc3-c3ccccc3Nc3c4ccccc4nc4cc([N+](=O)[O-])ccc34)c3ccccc3nc2c1
UO-31
  GI50: 3.26 µM (inactive)
SK-MEL-5
  GI50: 1.99 µM (inactive)
OVCAR-3
  GI50: 3.18 µM (inactive)
SNB-19
  GI50: 4.32 µM (inactive)
NCI/ADR-RES
  GI50: 7.41 µM (inactive)
IGROV-1
  GI50: 10.8 µM (inactive)
COLO 205
  GI50: 2.74 µM (inactive)
BT-549
  GI50: 1.16 µM (inactive)
NCI-H226
  GI50: 4.11 µM (inactive)
CAKI-1
  GI50: 6.46 µM (inactive)
KM12
  GI50: 2.86 µM (inactive)
HOP-92
  GI50: 3.44 µM (inactive)
UACC-257
  GI50: 8.05 µM (inactive)
Hs-578T
  GI50: 2.47 µM (inactive)
EKVX
  GI50: 11.8 µM (inactive)
OVCAR-4
  GI50: 10 µM (inactive)
U-251
  GI50: 2.94 µM (inactive)
SF-539
  GI50: 4.59 µM (inactive)
Malme-3M
  GI50: 8.63 µM (inactive)
LOX IMVI
  GI50: 9.57 µM (inactive)

## CCOC(=O)c1c(C)n(-c2ccc(Cl)cc2)c2c1cc(O)c1[nH]c3c(c12)CCCC3
UO-31
  GI50: > 100 µM (inactive)
SK-MEL-5
  GI50: 21.6 µM (inactive)
OVCAR-3
  GI50: 54.2 µM (inactive)
SNB-19
  GI50: 46.3 µM (inactive)
NCI/ADR-RES
  GI50: > 100 µM (inactive)
IGROV-1
  GI50: 44.4 µM (inactive)
COLO 205
  GI50: 48.8 µM (inactive)
BT-549
  GI50: 52.7 µM (inactive)
NCI-H226
  GI50: > 100 µM (inactive)
CAKI-1
  GI50: > 100 µM (inactive)
KM12
  GI50: 29 µM (inactive)
HOP-92
  GI50: 38.5 µM (inactive)
UACC-257
  GI50: 47 µM (inactive)
Hs-578T
  GI50: 22.5 µM (inactive)
EKVX
  GI50: 75.7 µM (inactive)
OVCAR-4
  GI50: 45.8 µM (inactive)
U-251
  GI50: 38.3 µM (inactive)
SF-539
  GI50: 42.5 µM (inactive)
Malme-3M
  GI50: 80.2 µM (inactive)
LOX IMVI
  GI50: 29.4 µM (inactive)

## COc1ccc2nc3cccc([N+](=O)[O-])c3c(NCCN(C)C)c2c1
UO-31
  GI50: 0.176 µM (active)
SK-MEL-5
  GI50: 0.102 µM (active)
OVCAR-3
  GI50: 0.127 µM (active)
SNB-19
  GI50: 0.282 µM (active)
NCI/ADR-RES
  GI50: 0.138 µM (active)
IGROV-1
  GI50: 0.167 µM (active)
COLO 205
  GI50: 0.0284 µM (active)
BT-549
  GI50: 0.0369 µM (active)
NCI-H226
  GI50: 0.207 µM (active)
CAKI-1
  GI50: 0.18 µM (active)
KM12
  GI50: 0.158 µM (active)
HOP-92
  GI50: 0.057 µM (active)
UACC-257
  GI50: 0.191 µM (active)
Hs-578T
  GI50: 0.242 µM (active)
EKVX
  GI50: 0.186 µM (active)
OVCAR-4
  GI50: 0.116 µM (active)
U-251
  GI50: 0.149 µM (active)
SF-539
  GI50: 0.147 µM (active)
Malme-3M
  GI50: 0.0877 µM (active)
LOX IMVI
  GI50: 0.0325 µM (active)

## Cc1ccc(S(=O)(=O)Oc2ccc(OS(=O)(=O)c3ccc(C)cc3)c3c2C(=O)c2ccccc2C3=O)cc1
UO-31
  GI50: 33.8 µM (inactive)
SK-MEL-5
  GI50: > 100 µM (inactive)
OVCAR-3
  GI50: > 100 µM (inactive)
SNB-19
  GI50: 54.6 µM (inactive)
NCI/ADR-RES
  GI50: > 100 µM (inactive)
IGROV-1
  GI50: > 100 µM (inactive)
COLO 205
  GI50: > 100 µM (inactive)
BT-549
  GI50: > 100 µM (inactive)
NCI-H226
  GI50: > 100 µM (inactive)
CAKI-1
  GI50: > 100 µM (inactive)
KM12
  GI50: > 100 µM (inactive)
HOP-92
  GI50: > 100 µM (inactive)
UACC-257
  GI50: > 100 µM (inactive)
Hs-578T
  GI50: 38.7 µM (inactive)
EKVX
  GI50: > 100 µM (inactive)
OVCAR-4
  GI50: > 100 µM (inactive)
U-251
  GI50: > 100 µM (inactive)
SF-539
  GI50: 33 µM (inactive)
Malme-3M
  GI50: > 100 µM (inactive)
LOX IMVI
  GI50: > 100 µM (inactive)

Reference: ChEMBL document CHEMBL1201862, “PubChem BioAssay data set” (2004)
